From paper PMC8591608, “DNDI-6148: A Novel Benzoxaborole Preclinical Candidate for the Treatment of Visceral Leishmaniasis” (Journal of Medicinal Chemistry, 2021)

Columns and labels:
L. infantum [1] = experiment: Intramacrophage L. infantum assay; type: cell-based; conditions: Leishmania infantum; Table 2; geometric mean of at least three independent assays; read-out: intramacrophage L. infantum EC50
Protocol: (§1) L. infantum (MHOM/MA/67/ITMAP263) and L. donovani (MHOM/ET/67/L82) were maintained in the golden (Syrian) hamster (Mesocricetus auratus). Ex vivo amastigotes were collected from the spleen of an infected donor hamster using two centrifugation purification steps: 230g for 10 min, keeping the supernatant layer, and 4100g for 30 min, keeping the pellet. The spleen parasite burden was assessed using the Stauber technique.[25] For in vitro assays, the inoculum was prepared in RPMI-1640 medium, supplemented with 200 mM L-glutamine, 16.5 mM NaHCO3, and 5% inactivated fetal calf serum. For the in vivo model, an infection inoculum containing 2 × 10^7 amastigotes/100 μL was prepared in phosphate-buffered saline (PBS).
(§2) The assay was performed in sterile 96-well microtiter plates, each well containing 10 μL of the compound dilution and 190 μL of the PMM/amastigote inoculum (3 × 10^4 cells/4.5 × 10^5 parasites per well). Parasite multiplication was compared to untreated infected controls (100% growth) and uninfected controls (0% growth). After five-day incubation, total parasite burdens were microscopically assessed after staining the cells with a 10% Giemsa solution. The results were expressed as a percentage reduction in parasite burden compared to untreated control wells. EC50 values were determined using an extended dose range (2-fold compound dilutions, 8-point concentration curve). Miltefosine was used as the reference drug.[26] For selected compounds, this assay format was also run using the L. donovani inoculum.

L. donovani = experiment: Intramacrophage L. donovani assay; type: cell-based; conditions: Leishmania donovani; Table 2; geometric mean of at least three independent assays
Protocol: as §1, §2

PMM cytotoxicity assay = type: cell-based; conditions: mouse, primary peritoneal mouse macrophages (PMM); for EC50 at 3 days: Table 2, geometric mean of at least three independent assays
Protocol: (§3) Primary peritoneal mouse macrophages (PMM) were collected two days after peritoneal stimulation with a 2% potato starch suspension. MRC5SV2 cells (diploid human embryonic lung fibroblasts) were cultured in minimal essential medium (MEM) containing Earle’s salts, supplemented with L-glutamine, NaHCO3, and 5% inactivated fetal calf serum. All cultures and assays were conducted at 37 °C under an atmosphere of 5% CO2.
(§4) Assays were performed in sterile 96-well microtiter plates, each well containing 10 μL of the compound dilution and 190 μL of MRC5SV2 or PMM inoculum (3 × 10^4 cells/mL). Cell growth was compared to untreated controls (100% growth) and assay-media controls (0% growth). After three-day incubation, cell viability was assessed fluorometrically by adding resazurin (50 μL/well of a stock solution in phosphate buffer (50 μg/mL)), incubating for 4 h and measuring fluorescence (λex 550 nm, λem 590 nm). The results were expressed as a percentage reduction in cell growth compared to untreated control wells. […] Tamoxifen was included as the reference drug.

[2] = system: wild-type L. donovani promastigotes; experiment: Drug sensitivity, wild-type L. donovani promastigotes; type: cell-based; conditions: Leishmania donovani
Protocol: (§5) The clonal L. donovani cell line LdBOB (derived from MHOM/SD/62/1S-CL2D) was grown as promastigotes at 28 °C, as described previously. Bloodstream form T. brucei MiTat 1.2 clone 221a and its derived subline, 2T1, were cultured at 37 °C in the presence of 5% CO2 in HMI9-T medium, as described previously. T. brucei cell lines overexpressing CPSF3 and overexpressing a mutated version of CPSF3 (Asn232His) were generated as part of a previous study and cultured as described.[19]
(§6) Drug sensitivity assays with wild-type and transgenic T. brucei and L. donovani cell lines were carried out as previously described.[31],[32]

[3] = system: CPSF3-overexpressing L. donovani promastigotes; experiment: Drug sensitivity, CPSF3-overexpressing L. donovani promastigotes; type: cell-based; conditions: Leishmania donovani
Protocol: as §5
(§7) L. donovaniCPSF3 gene (LdBPK_343210.1) was custom synthesized by GeneArt and ligated into the pIR1SAT vector via BglII restriction sites. Using the Q5 mutagenesis kit (NEB) and the pIR1SAT-LdCPSF3^WT construct as a template, mutations encoding A655C and Asn219His change to CPSF3^WT were introduced. Mutations were introduced using the specific primers 5′-GAGTACACGGCATCCGC-3′ and 5′-[…]-3′ and as per manufacturers’ instructions. Wild-type and mutated pIR1SAT constructs were digested with SwaI and transfected into L. donovani promastigotes, as previously described. Resistant clones were selected with nourseothricin (100 μg/mL), and two clones per transfection were selected for further study.
as §6

[4] = system: CPSF3 (Asn219His)-overexpressing L. donovani promastigotes; experiment: Drug sensitivity, CPSF3 (Asn219His)-overexpressing L. donovani promastigotes; type: cell-based; conditions: for EC50: Leishmania donovani
Protocol: as §5, §7, §6

Trypanosoma brucei = system: Trypanosoma brucei; set-up: method as in PMID 21738803; conditions: in vitro; read-out: EC50 against Trypanosoma brucei; cited from earlier work
MRC5 cytotoxicity assay = type: cell-based; conditions: human, MRC5SV2 cells (human embryonic lung fibroblasts); Table 4; geometric mean of at least two independent tests
Protocol: as §3, §4

[5] = Liver microsome stability, human; type: in vitro ADME; conditions: human liver microsomes, pH 7.4, Table 4, read-out: HLM Clint
Protocol: Tests were performed by WuXi AppTec, China. Test compounds (at 1 μM) or positive controls (testosterone, propafenone, and diclofenac) were incubated at 37 °C with liver microsomes from Balb/c mouse, golden (Syrian) hamster, Sprague-Dawley rat, Beagle dog, or human in the presence of a NADPH regenerating system and phosphate buffer (100 mM, pH 7.4) at 0.4 or 0.8 mg/mL microsomal protein. The samples were removed at time intervals from 0 to 60, 90, or 120 min and immediately mixed with cold methanol supplemented or not with acid (3% formic acid) and centrifuged prior to analysis by LC-MS/MS using tolbutamide or propranolol as internal standards.

L. infantum [6] = experiment: L. infantum hamster model of VL; type: in vivo
Protocol: as §1
Female golden hamsters for the in vivo model of visceral leishmaniasis were purchased from Janvier, France (body weight 80–100 g). This study using laboratory rodents was carried out in strict accordance with all mandatory guidelines (EU directives, including the Revised Directive 2010/63/EU on the protection of Animals used for Scientific Purposes that came into force on 01/01/2013, and the declaration of Helsinki in its latest version) and was approved by the ethical committee of the University of Antwerp, Belgium (UA-ECD 2011-74). Female golden hamsters for the pharmacokinetic study were purchased from Vital River, Beijing, China. This study was conducted following institutional review and in accordance with institutional and national guidelines at WuXi AppTec (the Institutional Animal Care and Use Committee (IACUC)). Balb/c mice for the in vivo model of visceral leishmaniasis (LSHTM) were purchased from Charles River, U.K., and related studies were conducted under license PPL 70/8427 from the U.K. Home Office.
Female golden hamsters were randomly allocated to experimental groups of six animals each, based on body weight. At the start of the experiment (Day 0), each animal was infected with L. infantum or L. donovani inoculum, delivered by intracardial injection. Six hamsters were assigned to the vehicle-treated, infected control group. Six hamsters were assigned per group (1 group/compound) for the evaluation of compound and miltefosine. […] At Day 35 (10 days after the final oral dose), all animals were euthanized and autopsies were conducted. The study evaluated the following parameters. • 1. Adverse effects: all animals were observed daily for the occurrence/presence of adverse effects. • 2. Body weight: all animals were weighed twice per week to monitor general health. • 3. Parasite burden: amastigote burdens in each target organ (liver, spleen, and bone marrow) were determined at Day 35. The organs of individual animals were weighed (except for bone marrow). Impression smears were stained with Giemsa for microscopic examination of the total amastigote burden, defined as the mean number of amastigotes per cell multiplied by the number of cells counted (minimum 500 nuclei); the results were expressed as a percentage reduction in amastigote burden compared to vehicle-treated, infected control animals.

SMILES: CC1(C)OB(O)c2cc(NC(=O)c3ccc(F)cc3C(F)(F)F)ccc21 [Compound 1, acoziborole, reference compound]
- EC50 (L. infantum [1]): > 64 µM
- EC50 (L. donovani): 59 µM
- EC50 at 3 days (PMM cytotoxicity assay): > 64 µM
- CC50 at 3 days (PMM cytotoxicity assay; supplement csv): > 64 µM
- EC50 [2]: 2.5 ± 0.1 µM
- EC50 [3]: 2.8 ± 0.1 µM
- EC50 [4]: 11.7 ± 0.4 µM
- fold reduction in susceptibility ([4]; promastigotes overexpressing mutated CPSF3): 5 fold
- EC50 (Trypanosoma brucei): 0.795 µM

SMILES: O=C(Nc1ccc2c(c1)B(O)OC2)c1ccc(F)cc1C(F)(F)F [Compound 3]
- EC50 (L. infantum [1]): 2.7 µM
- EC50 (L. donovani): 1.2 µM
- EC50 at 3 days (PMM cytotoxicity assay): > 64 µM
- CC50 at 3 days (PMM cytotoxicity assay; Table 4, geometric mean of at least two independent tests): > 64 µM
- CC50 at 3 days (MRC5 cytotoxicity assay): > 64 µM
- microsomal CLint at 2 h, 1 µM [5]: 0.8 µL/min/mg
- reduction in parasite burden, bone marrow (L. infantum [6]; 25 mg/kg QD for 5 days): 81.6%
- reduction in parasite burden, spleen (L. infantum [6]; 25 mg/kg QD for 5 days): 81.8%
- reduction in parasite burden, liver (L. infantum [6]; 25 mg/kg QD for 5 days, vs vehicle-treated infected controls): 87.8%
- reduction in parasite burden, bone marrow (L. infantum [6]; 50 mg/kg QD for 5 days): 91.2%
- reduction in parasite burden, liver (L. infantum [6]; 50 mg/kg QD for 5 days): 97.4%
- reduction in parasite burden, spleen (L. infantum [6]; 50 mg/kg QD for 5 days): 95.0%
- reduction in parasite burden, bone marrow (L. infantum [6]; 100 mg/kg QD for 5 days): 88.3%
- reduction in parasite burden, liver (L. infantum [6]; 100 mg/kg QD for 5 days): 98.6%
- reduction in parasite burden, spleen (L. infantum [6]; 100 mg/kg QD for 5 days): 96.0%
- EC50 [2]: 1.2 ± 0.02 µM
- EC50 [3]: 1.4 ± 0.03 µM
- EC50 [4]: 4.4 ± 0.2 µM
